Results on 18 compounds are retold here after ChEMBL document CHEMBL2062359, “Pyrimidinopyrimidine inhibitors of ketohexokinase: exploring the ring C2 group that interacts with Asp-27B in the ligand binding pocket” (Bioorg Med Chem Lett, 2012).

A value given as a limit tells only on which side of the number the result lay.

Assay [1] addresses T1, Ketohexokinase (Homo sapiens, UniProt P50053).
T1 sequence (P50053 whole entry): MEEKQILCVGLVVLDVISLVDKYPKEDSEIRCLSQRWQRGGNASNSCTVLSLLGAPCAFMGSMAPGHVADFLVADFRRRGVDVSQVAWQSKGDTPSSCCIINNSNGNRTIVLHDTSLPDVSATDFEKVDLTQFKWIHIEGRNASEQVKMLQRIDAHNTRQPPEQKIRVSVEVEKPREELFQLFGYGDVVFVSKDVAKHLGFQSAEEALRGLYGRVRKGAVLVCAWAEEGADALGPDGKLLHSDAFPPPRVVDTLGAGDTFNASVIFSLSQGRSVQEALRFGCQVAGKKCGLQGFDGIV
Kind of assay: Inhibition of recombinant human hepatic KHKC.

In assay [2] the target is T1, Ketohexokinase. In words: Inhibition of KHKC in human HepG2 cells assessed as level of fructose-1-phosphate. It is filed as cell-based.
In assay [3] the target is Tyrosine-protein kinase ABL1 (Homo sapiens, UniProt P00519). In words: Inhibition of ABL1 by FRET assay.
A further assay concerns the target Activin receptor type-1B (Homo sapiens, UniProt P36896). Kind of assay: Inhibition of ALK4 by FRET assay.
Assay [4] concerns the target RAC-alpha serine/threonine-protein kinase (Homo sapiens, UniProt P31749). Kind of assay: Inhibition of AKT1 by FRET assay.
Assay [5] addresses AMP-activated protein kinase (AMPK) alpha-1/beta-1/gamma-1 (Homo sapiens, UniProt P54619+Q13131+Q9Y478). Kind of assay: Inhibition of AMPK A1/B1/G1 by FRET assay. Format: protein-complex assay.
The target of the next assay is Aurora kinase A (Homo sapiens, UniProt O14965). Kind of assay: Inhibition of AURKA by FRET assay.
In assay [6] the target is Calcium/calmodulin-dependent protein kinase type 1D (Homo sapiens, UniProt Q8IU85). In words: Inhibition of CAMK1D by FRET assay.
Assay [7] concerns the target Cyclin-dependent kinase 1/cyclin B1 (Homo sapiens, UniProt P06493). Kind of assay: Inhibition of CDK1/cyclin B by FRET assay. It is filed as protein-complex assay.
Assay [8] deals with Serine/threonine-protein kinase Chk1 (Homo sapiens, UniProt O14757). Kind of assay: Inhibition of CHEK1 by FRET assay.
Chain of Serine/threonine-protein kinase Chk1 (O14757 whole entry): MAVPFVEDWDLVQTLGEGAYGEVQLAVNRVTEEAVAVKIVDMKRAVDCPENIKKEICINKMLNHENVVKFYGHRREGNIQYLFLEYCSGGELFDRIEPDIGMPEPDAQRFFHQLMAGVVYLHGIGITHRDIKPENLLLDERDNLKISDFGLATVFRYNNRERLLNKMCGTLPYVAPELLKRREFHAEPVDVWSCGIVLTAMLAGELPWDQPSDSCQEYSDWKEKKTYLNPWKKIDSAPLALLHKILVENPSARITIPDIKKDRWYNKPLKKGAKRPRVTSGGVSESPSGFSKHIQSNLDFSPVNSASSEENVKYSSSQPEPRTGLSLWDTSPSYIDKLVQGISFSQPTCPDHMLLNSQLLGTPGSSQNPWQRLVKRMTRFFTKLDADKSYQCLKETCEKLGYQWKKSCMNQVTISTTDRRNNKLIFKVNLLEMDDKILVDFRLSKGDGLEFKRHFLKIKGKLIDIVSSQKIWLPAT
Assay [9] addresses Serine/threonine-protein kinase Chk2 (Homo sapiens, UniProt O96017). Kind of assay: Inhibition of CHEK2 by FRET assay.
For assay [10], the target named is Casein kinase I isoform delta (Homo sapiens, UniProt P48730). Kind of assay: Inhibition of CSNK1D by FRET assay.
Assay [11] deals with Death-associated protein kinase 3 (Homo sapiens, UniProt O43293). Kind of assay: Inhibition of DAPK3 by FRET assay.
A further assay has as its target Ephrin type-B receptor 1 (Homo sapiens, UniProt P54762). Kind of assay: Inhibition of EPHB1 by FRET assay.
For assay [12], the target named is Glycogen synthase kinase-3 beta (Homo sapiens, UniProt P49841). In words: Inhibition of GSK3B by FRET assay.
Assay [13] addresses Interleukin-1 receptor-associated kinase 4 (Homo sapiens, UniProt Q9NWZ3). Kind of assay: Inhibition of IRAK4 by FRET assay.
The target in assay [14] is Tyrosine-protein kinase JAK2 (Homo sapiens, UniProt O60674). In words: Inhibition of JAK2 by FRET assay.
Chain of Tyrosine-protein kinase JAK2 (O60674 whole entry): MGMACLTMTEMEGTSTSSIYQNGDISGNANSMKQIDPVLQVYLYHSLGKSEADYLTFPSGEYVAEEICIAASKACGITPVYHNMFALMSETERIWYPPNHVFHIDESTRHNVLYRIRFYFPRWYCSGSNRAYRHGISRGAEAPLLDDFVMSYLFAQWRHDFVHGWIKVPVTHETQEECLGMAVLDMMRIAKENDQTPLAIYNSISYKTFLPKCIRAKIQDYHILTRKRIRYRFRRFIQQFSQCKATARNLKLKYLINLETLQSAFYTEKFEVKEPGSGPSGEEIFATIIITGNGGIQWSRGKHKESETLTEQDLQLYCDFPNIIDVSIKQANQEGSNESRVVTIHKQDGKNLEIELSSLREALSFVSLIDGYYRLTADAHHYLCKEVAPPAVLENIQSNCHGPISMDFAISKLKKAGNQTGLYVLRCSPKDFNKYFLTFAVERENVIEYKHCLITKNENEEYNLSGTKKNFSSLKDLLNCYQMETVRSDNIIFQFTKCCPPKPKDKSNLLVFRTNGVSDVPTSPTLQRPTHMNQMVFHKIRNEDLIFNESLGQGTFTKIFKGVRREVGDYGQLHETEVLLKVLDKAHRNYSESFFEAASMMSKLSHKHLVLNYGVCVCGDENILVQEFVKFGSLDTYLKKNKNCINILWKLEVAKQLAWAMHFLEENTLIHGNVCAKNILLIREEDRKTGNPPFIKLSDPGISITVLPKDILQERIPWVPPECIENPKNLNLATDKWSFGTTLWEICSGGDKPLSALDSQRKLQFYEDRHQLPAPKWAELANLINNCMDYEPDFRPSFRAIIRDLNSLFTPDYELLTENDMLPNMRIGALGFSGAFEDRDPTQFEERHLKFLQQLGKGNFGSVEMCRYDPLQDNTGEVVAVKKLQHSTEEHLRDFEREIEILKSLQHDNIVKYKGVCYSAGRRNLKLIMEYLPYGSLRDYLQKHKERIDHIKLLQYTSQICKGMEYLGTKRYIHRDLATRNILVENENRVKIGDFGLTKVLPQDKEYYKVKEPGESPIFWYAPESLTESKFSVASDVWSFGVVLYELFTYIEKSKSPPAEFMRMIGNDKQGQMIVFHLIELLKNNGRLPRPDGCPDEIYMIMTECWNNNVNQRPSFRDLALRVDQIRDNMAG
Assay [15] deals with Mitogen-activated protein kinase 13 (Homo sapiens, UniProt O15264). Kind of assay: Inhibition of MAPK13 by FRET assay.
Chain of Mitogen-activated protein kinase 13 (O15264 whole entry): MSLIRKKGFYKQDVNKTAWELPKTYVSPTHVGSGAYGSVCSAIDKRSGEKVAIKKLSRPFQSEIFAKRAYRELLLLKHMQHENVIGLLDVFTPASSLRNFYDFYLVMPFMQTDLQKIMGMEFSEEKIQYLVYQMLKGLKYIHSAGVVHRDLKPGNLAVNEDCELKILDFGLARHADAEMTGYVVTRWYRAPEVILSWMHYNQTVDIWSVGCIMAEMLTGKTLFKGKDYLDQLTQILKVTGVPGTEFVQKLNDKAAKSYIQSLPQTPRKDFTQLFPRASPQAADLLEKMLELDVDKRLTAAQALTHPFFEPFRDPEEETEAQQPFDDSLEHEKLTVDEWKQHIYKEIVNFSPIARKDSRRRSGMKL
The target in assay [16] is Serine/threonine-protein kinase 26 (Homo sapiens, UniProt Q9P289). Kind of assay: Inhibition of MST4 by FRET assay.
Assay [17] deals with Serine/threonine-protein kinase Nek2 (Homo sapiens, UniProt P51955). Kind of assay: Inhibition of NEK2 by FRET assay.
Assay [18] has as its target High affinity nerve growth factor receptor (Homo sapiens, UniProt P04629). In words: Inhibition of NTRK1 by FRET assay.
The target of assay [19] is Serine/threonine-protein kinase PAK 3 (Homo sapiens, UniProt O75914). In words: Inhibition of PAK3 by FRET assay.
Assay [20] concerns the target Serine/threonine-protein kinase pim-2 (Homo sapiens, UniProt Q9P1W9). Kind of assay: Inhibition of PIM2 by FRET assay.
The target of assay [21] is Serine/threonine-protein kinase PLK3 (Homo sapiens, UniProt Q9H4B4). Kind of assay: Inhibition of PLK3 by FRET assay.
Chain of Serine/threonine-protein kinase PLK3 (Q9H4B4 whole entry): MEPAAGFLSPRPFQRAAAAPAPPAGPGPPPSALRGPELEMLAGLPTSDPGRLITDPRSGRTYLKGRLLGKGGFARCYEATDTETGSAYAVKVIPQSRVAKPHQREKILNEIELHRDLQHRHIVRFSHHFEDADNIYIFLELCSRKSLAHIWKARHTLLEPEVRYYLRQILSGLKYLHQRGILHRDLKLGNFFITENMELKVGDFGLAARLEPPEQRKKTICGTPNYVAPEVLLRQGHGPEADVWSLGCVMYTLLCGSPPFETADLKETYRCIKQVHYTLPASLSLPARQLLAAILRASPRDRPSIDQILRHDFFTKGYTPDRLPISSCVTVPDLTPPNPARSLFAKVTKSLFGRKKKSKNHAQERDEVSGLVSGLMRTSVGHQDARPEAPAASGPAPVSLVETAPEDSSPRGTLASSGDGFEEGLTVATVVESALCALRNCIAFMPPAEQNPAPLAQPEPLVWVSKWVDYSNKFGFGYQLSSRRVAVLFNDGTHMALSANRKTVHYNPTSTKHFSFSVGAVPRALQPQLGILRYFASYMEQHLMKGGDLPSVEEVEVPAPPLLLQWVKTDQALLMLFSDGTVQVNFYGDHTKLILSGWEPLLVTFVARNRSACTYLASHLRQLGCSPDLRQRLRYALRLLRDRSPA
In assay [22] the target is cAMP-dependent protein kinase catalytic subunit alpha (Homo sapiens, UniProt P17612). In words: Inhibition of PRKACA by FRET assay.
The target of assay [23] is Protein kinase C theta type (Homo sapiens, UniProt Q04759). Kind of assay: Inhibition of PRKCQ by FRET assay.
Chain of Protein kinase C theta type (Q04759 whole entry): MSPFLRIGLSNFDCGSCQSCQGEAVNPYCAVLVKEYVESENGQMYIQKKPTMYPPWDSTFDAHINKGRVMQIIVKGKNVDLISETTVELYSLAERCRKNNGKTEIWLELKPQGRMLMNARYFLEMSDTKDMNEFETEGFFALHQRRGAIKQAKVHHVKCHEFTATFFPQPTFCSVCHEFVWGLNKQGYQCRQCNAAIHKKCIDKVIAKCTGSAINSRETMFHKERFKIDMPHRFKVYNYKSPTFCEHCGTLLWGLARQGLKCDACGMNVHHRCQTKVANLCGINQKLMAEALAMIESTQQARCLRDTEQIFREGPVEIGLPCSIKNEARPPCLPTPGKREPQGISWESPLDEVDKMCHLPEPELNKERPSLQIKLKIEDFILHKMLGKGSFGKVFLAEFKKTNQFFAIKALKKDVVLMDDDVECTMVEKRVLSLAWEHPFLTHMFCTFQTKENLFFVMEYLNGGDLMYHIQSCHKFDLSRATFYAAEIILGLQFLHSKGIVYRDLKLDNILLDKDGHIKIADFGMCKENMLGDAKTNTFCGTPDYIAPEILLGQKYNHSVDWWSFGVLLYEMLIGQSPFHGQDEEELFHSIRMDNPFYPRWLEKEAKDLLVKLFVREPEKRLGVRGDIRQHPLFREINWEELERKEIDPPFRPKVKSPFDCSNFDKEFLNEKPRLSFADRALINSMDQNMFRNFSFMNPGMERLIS
For assay [24], the target named is Rho-associated protein kinase 1 (Homo sapiens, UniProt Q13464). Kind of assay: Inhibition of ROCK1 by FRET assay.
In assay [25] the target is Ribosomal protein S6 kinase alpha-3 (Homo sapiens, UniProt P51812). Kind of assay: Inhibition of RPS6KA3 by FRET assay.

Chain of Interleukin-1 receptor-associated kinase 4 (Q9NWZ3 whole entry): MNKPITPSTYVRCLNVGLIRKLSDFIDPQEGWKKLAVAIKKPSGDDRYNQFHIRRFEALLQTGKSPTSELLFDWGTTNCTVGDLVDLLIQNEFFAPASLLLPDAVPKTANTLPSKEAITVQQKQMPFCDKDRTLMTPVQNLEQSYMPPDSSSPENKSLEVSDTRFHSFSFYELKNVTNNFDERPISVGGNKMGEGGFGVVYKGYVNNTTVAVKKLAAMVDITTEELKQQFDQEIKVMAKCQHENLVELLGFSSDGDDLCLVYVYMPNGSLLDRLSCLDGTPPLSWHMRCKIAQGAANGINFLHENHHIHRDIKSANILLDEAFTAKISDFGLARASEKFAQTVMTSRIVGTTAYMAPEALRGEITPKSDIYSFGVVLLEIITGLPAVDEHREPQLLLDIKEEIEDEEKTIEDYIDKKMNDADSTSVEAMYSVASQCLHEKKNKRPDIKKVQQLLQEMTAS
Chain of Activin receptor type-1B (P36896 whole entry): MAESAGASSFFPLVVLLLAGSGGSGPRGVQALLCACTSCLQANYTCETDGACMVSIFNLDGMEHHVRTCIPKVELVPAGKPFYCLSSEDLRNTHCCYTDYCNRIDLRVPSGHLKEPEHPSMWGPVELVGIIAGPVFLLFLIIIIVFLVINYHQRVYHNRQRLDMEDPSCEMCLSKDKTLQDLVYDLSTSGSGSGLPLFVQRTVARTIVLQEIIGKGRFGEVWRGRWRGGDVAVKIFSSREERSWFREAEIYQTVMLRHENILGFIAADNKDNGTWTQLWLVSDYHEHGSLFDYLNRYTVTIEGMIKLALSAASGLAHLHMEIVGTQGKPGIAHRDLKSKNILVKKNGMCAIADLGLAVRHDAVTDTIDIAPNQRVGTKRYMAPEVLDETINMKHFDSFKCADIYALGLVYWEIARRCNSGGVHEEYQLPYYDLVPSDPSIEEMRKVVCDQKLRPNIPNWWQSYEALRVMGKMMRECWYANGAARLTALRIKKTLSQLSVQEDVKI
Chain of Cyclin-dependent kinase 1/cyclin B1 (P06493 whole entry): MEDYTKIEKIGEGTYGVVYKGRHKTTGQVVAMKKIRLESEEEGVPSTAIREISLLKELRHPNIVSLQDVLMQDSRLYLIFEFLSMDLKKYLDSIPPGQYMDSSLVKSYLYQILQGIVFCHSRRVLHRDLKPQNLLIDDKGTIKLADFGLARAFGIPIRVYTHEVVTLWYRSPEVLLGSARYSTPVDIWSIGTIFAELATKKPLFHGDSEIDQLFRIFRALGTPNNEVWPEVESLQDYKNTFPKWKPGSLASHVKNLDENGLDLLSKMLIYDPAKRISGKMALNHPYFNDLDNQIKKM
Chain of Cyclin-dependent kinase 1/cyclin B1 (P14635 whole entry, further chain): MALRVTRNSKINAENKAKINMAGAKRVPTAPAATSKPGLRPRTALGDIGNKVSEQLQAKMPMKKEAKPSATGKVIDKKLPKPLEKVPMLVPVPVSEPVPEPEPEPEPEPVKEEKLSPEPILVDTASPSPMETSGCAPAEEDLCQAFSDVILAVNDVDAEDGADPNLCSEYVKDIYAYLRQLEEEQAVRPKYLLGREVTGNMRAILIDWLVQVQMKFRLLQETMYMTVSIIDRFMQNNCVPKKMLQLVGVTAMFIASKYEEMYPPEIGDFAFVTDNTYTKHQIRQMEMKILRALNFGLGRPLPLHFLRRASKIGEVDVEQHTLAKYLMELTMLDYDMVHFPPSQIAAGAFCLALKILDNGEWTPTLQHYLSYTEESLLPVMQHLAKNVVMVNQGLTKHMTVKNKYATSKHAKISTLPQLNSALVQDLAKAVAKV

In general, IC50 refers to the midpoint of a concentration-inhibition curve. As for `CSc1ccccc1Nc1nc(N2CCNC[C@H]2C)nc2c(NCC3CC3)ncnc12`, at Ketohexokinase [1], the IC50 was determined as 0.058 µM.
Take `CSc1ccccc1Nc1nc(N2CCC(N3CCNCC3)CC2)nc2c(NCC3CC3)ncnc12`: the IC50 at Ketohexokinase [1] worked out at 0.028 µM.
With `CSc1ccccc1Nc1nc(N2CCNC(C)(C)C2)nc2c(NCC3CC3)ncnc12`, the IC50 at Ketohexokinase [1] is 0.04 µM.
As for `CSc1ccccc1Nc1nc(N2C[C@@H]3C[C@H]2CN3)nc2c(NCC3CC3)ncnc12`, the IC50 at Ketohexokinase [1] came to 4.6 µM.
As to `CSc1ccccc1Nc1nc(N2CCC3(CNC3)C2)nc2c(NCC3CC3)ncnc12`, the IC50 is 0.002 µM at Ketohexokinase [1] and 0.15 µM at Ketohexokinase [2].
Consider `CSc1ccccc1Nc1nc(N2CCC3(CCNCC3)CC2)nc2c(NCC3CC3)ncnc12`, for which the IC50 on Ketohexokinase [1] stood at 0.015 µM.
For `CSc1ccccc1Nc1nc(N2CCC3(CCNC3)C2)nc2c(NCC3CC3)ncnc12` (stereo not given), the IC50 at Ketohexokinase [1] was 0.043 µM.
Same read-out and setting: for `CSc1ccccc1Nc1nc(N2CCNC(C)C2)nc2c(NCC3CC3)ncnc12` (stereo not given) the value was 0.07 µM.
With `CSc1ccccc1Nc1nc(N2CCNCC2)nc2c(NCC3CC3)ncnc12`, the IC50 at Ketohexokinase [2] is under 0.5 µM.
Consider `CSc1ccccc1Nc1nc(N2CCNc3ccccc3C2)nc2c(NCC3CC3)ncnc12`, for which the IC50 on Ketohexokinase [1] is 6 µM.
For the compound `CSc1ccccc1Nc1nc(N2C3CCC2CC(N)C3)nc2c(NCC3CC3)ncnc12` (stereo not given), the IC50 at Ketohexokinase [1] is 0.8 µM.
`CSc1ccccc1Nc1nc(N2CCC(N3CCN(C)CC3)CC2)nc2c(NCC3CC3)ncnc12`: on Ketohexokinase [1], the IC50 came to 0.03 µM.
On the same count and under the same terms, for `CSc1ccccc1Nc1nc(N(C)CC2CCNCC2)nc2c(NCC3CC3)ncnc12` the value was 0.066 µM; for `CSc1ccccc1Nc1nc(N2CCC[C@@H]3CNC[C@@H]32)nc2c(NCC3CC3)ncnc12`, 0.44 µM.
In the case of `CSc1ccccc1Nc1nc(N2C[C@@H](C)N[C@@H](C)C2)nc2c(NCC3CC3)ncnc12`, the IC50 at Ketohexokinase [1] was found to be 0.11 µM.
Regarding `CSc1ccccc1Nc1nc(N2C[C@@H]3CCCN[C@@H]3C2)nc2c(NCC3CC3)ncnc12`, at Ketohexokinase [1], the IC50 amounted to 0.3 µM.
`CSc1ccccc1Nc1nc(N2CCN(C3CCNCC3)CC2)nc2c(NCC3CC3)ncnc12`: the concentration for half-maximal inhibition (IC50) was 0.048 µM at Ketohexokinase [1]; under 10 µM in assay [3]; under 10 µM at Activin receptor type-1B; under 10 µM in [4]; under 10 µM in assay [5]; under 10 µM against Aurora kinase A. Besides, the IC50 in [6], in assay [7], in assay [8], in assay [9], in [10] and in [11] was under 10 µM in each case. The IC50 (at Ephrin type-B receptor 1; in assay [12]; in assay [13]; in assay [14]; in assay [15]; in assay [16]) was under 10 µM each time. The IC50 in assay [17], in assay [18], in assay [19], in assay [20], in assay [21] and in assay [22] was under 10 µM in each case. In addition, the IC50 in assay [23], in assay [24] and in assay [25] was under 10 µM in each case.
With `CSc1ccccc1Nc1nc(N2CCC(C3CCNCC3)CC2)nc2c(NCC3CC3)ncnc12`, at Ketohexokinase [1], the IC50 worked out at 0.05 µM.
